Laboratory results published in US20230414599A1, “NICOTINAMIDE, NICOTINAMIDE PRECURSORS AND NICOTINAMIDE METABOLITES AND COMPOSITIONS THEREOF FOR REDUCING THE TIME TO RESOLUTION OF SYMPTOMS IN PATIENTS WITH COVID-19 AND OTHER VIRAL INFECTIONS” (CONARIS RESEARCH INSTITUTE AG, priority 2020, published 2023).

Tested on: COVID-19
Assay: COVit-1 trial expanded to 56 patients (nicotinamide vs silica)
Assay type: in vivo
Conditions: for Absolute Risk difference of being symptom-free, 95% Confidence Level: nicotinamide vs silica; for Relative Risk of being symptom-free: silica = REF
[1] = baseline, before supplementation, n = 28
[2] = reduction at week 2 vs baseline, generalized linear mixed model
[3] = week 2, 1,000 mg/day immediate-release, n = 28

NC(=O)c1cccnc1 [Nicotinamide, nicotinamide]
Chest pain, patients with symptom [1]: 25.0% | Cough with sputum, patients with symptom [1]: 25.0% | Cough, patients with symptom [1]: 71.4% | Diarrhoea, patients with symptom [1]: 28.6% | Fatigue, patients with symptom [1]: 82.1% | Fever, patients with symptom [1]: 50.0% | Head cold (rhinorrhoea), patients with symptom [1]: 78.6% | Headache, patients with symptom [1]: 78.6% | Impaired sense of smell, patients with symptom [1]: 60.7% | Impaired sense of taste, patients with symptom [1]: 64.3% | Joint pain, patients with symptom [1]: 35.7% | Loss of appetite, patients with symptom [1]: 42.9% | Muscle pain, patients with symptom [1]: 50.0% | Other (individually reported) symptoms, patients with symptom [1]: 28.6% | Reduced physical performance, patients with symptom [1]: 82.1% | Shortness of breath, patients with symptom [1]: 28.6% | Sore throat, patients with symptom [1]: 35.7% | Vomiting, patients with symptom [1]: 3.6% | Loss of appetite, OR estimate nicotinamide vs. silica (reduction at week 2 vs baseline, footnote: OR very high): >>^‡ | Vomiting, OR estimate nicotinamide vs. silica (reduction at week 2 vs baseline, footnote: OR very high (unstable due to the small sample)): >>^‡‡ | Chest pain, OR estimate nicotinamide vs. silica [2]: 12.7 | Cough with sputum, OR estimate nicotinamide vs. silica [2]: 4.64 | Cough, OR estimate nicotinamide vs. silica [2]: 1.01 | Diarrhoea, OR estimate nicotinamide vs. silica [2]: 0.84 | Fatigue, OR estimate nicotinamide vs. silica [2]: 2.72 | Fever, OR estimate nicotinamide vs. silica [2]: 1.40 | Head cold (rhinorrhoea), OR estimate nicotinamide vs. silica [2]: 1.41 | Headache, OR estimate nicotinamide vs. silica [2]: 1.27 | Impaired sense of smell, OR estimate nicotinamide vs. silica [2]: 2.05 | Impaired sense of taste, OR estimate nicotinamide vs. silica [2]: 1.24 | Joint pain, OR estimate nicotinamide vs. silica [2]: 2.74 | Muscle pain, OR estimate nicotinamide vs. silica [2]: 1.09 | Other (individually reported) symptoms, OR estimate nicotinamide vs. silica [2]: 1.07 | Reduced physical performance, OR estimate nicotinamide vs. silica [2]: 1.19 | Shortness of breath, OR estimate nicotinamide vs. silica [2]: 1.45 | Sore throat, OR estimate nicotinamide vs. silica [2]: 9.25 | Chest pain, patients with symptom [3]: 3.9% | Cough with sputum, patients with symptom [3]: 3.9% | Cough, patients with symptom [3]: 19.2% | Diarrhoea, patients with symptom [3]: 7.7% | Fatigue, patients with symptom [3]: 30.8% | Fever, patients with symptom [3]: 3.9% | Head cold (rhinorrhoea), patients with symptom [3]: 19.2% | Headache, patients with symptom [3]: 19.2% | Impaired sense of smell, patients with symptom [3]: 23.1% | Impaired sense of taste, patients with symptom [3]: 23.1% | Joint pain, patients with symptom [3]: 3.9% | Loss of appetite, patients with symptom [3]: 0.0% | Muscle pain, patients with symptom [3]: 3.9% | Other (individually reported) symptoms, patients with symptom [3]: 15.4% | Reduced physical performance, patients with symptom [3]: 34.6% | Shortness of breath, patients with symptom [3]: 26.9% | Sore throat, patients with symptom [3]: 3.9% | Vomiting, patients with symptom [3]: 0.0% | Symptom-free, % (week 2, all COVID-19 patients, n = 28, intention to treat): 35.7% | Absolute Risk difference of being symptom-free, 95% Confidence Level (week 2, all patients): 21.4 (−0.6; 43.4) % | Relative Risk of being symptom-free (week 2, all patients): 2.50 | Symptom-free, % (week 2, female patients, n = 17): 47.1% | Absolute Risk difference of being symptom-free, 95% Confidence Level (week 2, female patients): 35.9 (8.1-63.8) ^ % | Relative Risk of being symptom-free (week 2, female patients): 4.24 | Symptom-free, % (week 2, male patients, n = 11): 18.2% | Absolute Risk difference of being symptom-free, 95% Confidence Level (week 2, male patients): 1.8 (−35.5; 31.9) % | Relative Risk of being symptom-free (week 2, male patients): 0.91 | Time from diagnosis to symptom-free, median (week 2 analysis, all patients): 11.0 days | Time from diagnosis to symptom-free, median (week 2 analysis, female patients): 10.5 days | Time from diagnosis to symptom-free, median (week 2 analysis, male patients): 13.0 days | Symptom-free, % (week 4, all COVID-19 patients, n = 28, intention to treat): 39.3% | Absolute Risk difference of being symptom-free, 95% Confidence Level (week 4, all patients): −3.57 (−22.2; 29.3) % | Relative Risk of being symptom-free (week 4, all patients): 0.92 | Symptom-free, % (week 4, female patients, n = 17): 52.9% | Absolute Risk difference of being symptom-free, 95% Confidence Level (week 4, female patients): 2.94 (−30.2; 36.1) % | Relative Risk of being symptom-free (week 4, female patients): 1.06 | Symptom-free, % (week 4, male patients, n = 11): 18.2% | Absolute Risk difference of being symptom-free, 95% Confidence Level (week 4, male patients): −0.12 (−48.2; 24.6) % | Relative Risk of being symptom-free (week 4, male patients): 0.61 | Median time to resolution of symptoms compared to silica (week 4, n = 28 per group): approximately half as long | Time from diagnosis to symptom-free, median (week 4 analysis, all patients): 13.0 days | Time from diagnosis to symptom-free, median (week 4 analysis, female patients): 13.0 days | Time from diagnosis to symptom-free, median (week 4 analysis, male patients): 16.5 days
